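Interpolation was linear, between the two tested concentrations surrounding the appropriate level; five concentrations were tested over 48 hours in 96-well plates. GI50 marks 50% less growth. Definition used: TGI = concentration required for complete inhibition of growth.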
Key:
Experiment in all cases: NCI anticancer screen, dose series, 48 h
RXF 393 renal = tested on: RXF 393 renal
SNB-75 CNS = tested on: SNB-75 CNS
KM12 colon = tested on: KM12 colon
UACC-257 melanoma = tested on: UACC-257 melanoma
ACHN renal = tested on: ACHN renal
HCT-15 colon = tested on: HCT-15 colon
SR leukemia = tested on: SR leukemia
COLO 205 colon = tested on: COLO 205 colon
M14 melanoma = tested on: M14 melanoma
A549 NSCLC = tested on: A549 NSCLC
786-0 renal = tested on: 786-0 renal
SF-295 CNS = tested on: SF-295 CNS
HCT-116 colon = tested on: HCT-116 colon
MDA-MB-231 breast = tested on: MDA-MB-231 breast
OVCAR-3 ovarian = tested on: OVCAR-3 ovarian
TK-10 renal = tested on: TK-10 renal
PC-3 prostate = tested on: PC-3 prostate
HOP-92 NSCLC = tested on: HOP-92 NSCLC
T-47D breast = tested on: T-47D breast
NCI-H226 lung = tested on: NCI-H226 lung
MALME-3M melanoma = tested on: MALME-3M melanoma
A498 renal = tested on: A498 renal
DU-145 prostate = tested on: DU-145 prostate
HCC-2998 colon = tested on: HCC-2998 colon
SF-539 CNS = tested on: SF-539 CNS
RPMI-8226 leukemia = tested on: RPMI-8226 leukemia
K-562 leukemia = tested on: K-562 leukemia
HT29 colon = tested on: HT29 colon
CAKI-1 renal = tested on: CAKI-1 renal

O=C(Nc1ncc(Cc2ccccc2)s1)c1ccc2c(c1)OCCCO2
GI50 (RXF 393 renal): 1780 nM | TGI (RXF 393 renal): > 100000 nM | GI50 (SNB-75 CNS): 613 nM | TGI (SNB-75 CNS): > 29300 nM | GI50 (KM12 colon): 372 nM | TGI (KM12 colon): > 100000 nM | GI50 (UACC-257 melanoma): 1610 nM | TGI (UACC-257 melanoma): > 100000 nM | GI50 (ACHN renal): 644 nM | TGI (ACHN renal): > 100000 nM | GI50 (HCT-15 colon): 376 nM | TGI (HCT-15 colon): > 100000 nM | GI50 (SR leukemia): 299 nM | TGI (SR leukemia): > 100000 nM | GI50 (COLO 205 colon): 579 nM | TGI (COLO 205 colon): > 100000 nM | GI50 (M14 melanoma): 374 nM | TGI (M14 melanoma): > 100000 nM | GI50 (A549 NSCLC): 725 nM | TGI (A549 NSCLC): > 100000 nM | GI50 (786-0 renal): 2440 nM | TGI (786-0 renal): > 100000 nM | GI50 (SF-295 CNS): 396 nM | TGI (SF-295 CNS): > 100000 nM | GI50 (HCT-116 colon): 468 nM | TGI (HCT-116 colon): > 100000 nM | GI50 (MDA-MB-231 breast): 2770 nM | TGI (MDA-MB-231 breast): > 100000 nM | GI50 (OVCAR-3 ovarian): 614 nM | TGI (OVCAR-3 ovarian): > 100000 nM | GI50 (TK-10 renal): 6170 nM | TGI (TK-10 renal): > 100000 nM | GI50 (PC-3 prostate): 927 nM | TGI (PC-3 prostate): > 100000 nM | GI50 (HOP-92 NSCLC): > 24000 nM | TGI (HOP-92 NSCLC): > 100000 nM | GI50 (T-47D breast): 541 nM | TGI (T-47D breast): > 100000 nM | GI50 (NCI-H226 lung): 1440 nM | TGI (NCI-H226 lung): > 100000 nM | GI50 (MALME-3M melanoma): 882 nM | TGI (MALME-3M melanoma): > 100000 nM | GI50 (A498 renal): 282 nM | TGI (A498 renal): 3030 nM | GI50 (DU-145 prostate): 2300 nM | TGI (DU-145 prostate): > 100000 nM | GI50 (HCC-2998 colon): 885 nM | TGI (HCC-2998 colon): > 100000 nM | GI50 (SF-539 CNS): 490 nM | TGI (SF-539 CNS): 4270 nM | GI50 (RPMI-8226 leukemia): 428 nM | GI50 (K-562 leukemia): 254 nM | TGI (K-562 leukemia): > 100000 nM | GI50 (HT29 colon): 361 nM | TGI (HT29 colon): > 100000 nM | GI50 (CAKI-1 renal): 526 nM | TGI (CAKI-1 renal): > 100000 nM
